Laboratory results published in US8846860B2, “Methods of decorating hydroxyapatite biomaterials with modular biologically active molecules” (Wisconsin Alumni Research Foundation, priority 2009, dated 2014).
Non-standard residues stand in square brackets, D forms with d. No end group written: not given here. Gla = N[C@@H](CC(C(=O)O)C(=O)O)C(=O)O

What was measured:
[1] = Binding of VEGF-OCN and VEGF-mimic to HA particle / HA slab
Method: To measure the binding efficiency of modular peptides to the HA-coated PLG films and to gain preliminary insight into the properties that influence modular peptide immobilization, we first exposed 1 cm^2 HA-coated PLG films to PBS solutions containing 500 μg (1 mg/ml) of 5(6) FAM-conjugated eBMP-2, eBGu1, eBGu3, eBGa1, or eBGa3 modular peptide solution (See Table 1 for definitions of these abbreviations). The films were incubated in peptide solutions with constant agitation for 4 hours at 37° C., and the amount of free peptide remaining was determined by measuring the fluorescence emission of the solution (excitation: 494 nm; emission 519 nm) using a Synergy HT Multi-Detection Microplate Reader (BioTek, Winooski, Vt.), and comparing this emission to standard samples with known concentrations of 5(6)-FAM. To further characterize surface immobilization of the peptide with the highest binding efficiency—the eBGa3 peptide—1 cm^2 HA-coated films were incubated in various concentrations (50-750 μM) of 5(6)-FAM-conjugated eBGa3 peptide for 4 hours with constant agitation at 37° C. The amount of peptide bound to HA-coated film was again determined by fluorescence analysis, as described above.
The binding behavior of the peptides (both modular peptide, VEGF-OCN (SEQ ID NO:18), and VEGF-mimic) were analyzed and compared as described above. The amount of bound VEGF-OCN on the HA particle increased with peptide concentration and reached saturation at 15 μM (FIG. 8A).

[2] = system: mouse yolk sac endothelial C166-GFP cells; assay: C166-GFP cell proliferation with soluble peptides (CYQUANT); type: cell-based; conditions: soluble peptide, 48 hours of stimulation, compared to a control
Method: To determine biological activity of VEGF portion for promoting cell proliferation, mouse yolk sac endothelial C166-GFP cells were seeded at a density of 3.12×10^3 cells/cm^2 (1×10^3 cells per well) in 96-well plate, allowed to attach for six hours, and then stimulated with either VEGF-OCN or VEGF-mimic After 48 hours of stimulation, optical micrographs were taken using Olympus IX-51 microscope and cell numbers were determined by CYQUANT assay.

[3] = system: mouse yolk sac endothelial C166-GFP cells; assay: C166-GFP cell proliferation on peptide-treated HA slabs (CYQUANT); type: cell-based; conditions: peptide-treated HA slab, 2-day culture, compared to control
Method: Cells were again seeded at a density of 2×10^4 cells/cm^2 (4×10^4 cells per well) in 24-well plate. Prior to seeding, HA slabs (1 cm×1 cm) were incubated in peptide solution (PBS) for four hours at 37° C. and copiously rinsed with deionized water, and then placed in a well of the 24-well plate. After 1-day culture, cells were treated with 2 μM calcein AM solution, and imaged using Olympus IX-51 microscope.
Additionally, a cell number count of the C166-GFP cells as cultured in the presence of VEGF-OCN or VEGF mimic was determined For the cell count, cells were seeded at a density of 5×10^3 cells/cm^2 (1×10^4 cells per well) in a 24-well plate. After 2-day culture, cells were detached from the HA slab and cell number was assessed using CYQUANT assay.

hMSCs [4] = assay: Alkaline phosphatase (ALP) activity in hMSCs; type: cell-based, human; conditions: soluble peptide (50 μg in 500 μl) with osteogenic supplements, hMSCs on TCP, day 12
Method: hMSCs (Cambrex, Walkersville, Md., passages 5-6) were cultured in mesenchymal stem cell growth medium (MSCGM: Cambrex) consisting of MSC Basal Medium supplemented with 10% fetal bovine serum, L-glutamine, 100 units/ml penicillin, and 0.1 mg/ml streptomycin. 2.5×10^4 hMSCs were seeded onto either tissue culture-treated polystyrene (TCP) or four different types of experimental substrates (1 cm^2) (PLG, HA-coated PLG, eBGu3-treated HA coating, or eBGa3-treated HA coating). hMSCs were allowed to attach to each substrate overnight, then cultured in MSCGM with osteogenic culture supplements (OS) (0.1 μM dexamethasone, 50 μg/ml ascorbic acid, and 10 mM β-glycerophosphate) for 24 days. The effects of soluble peptides included in culture medium were evaluated by adding 50 μg of eBGu3 or eBGa3 peptides to hMSC cultures on TCP in 500 μl of medium with or without osteogenic culture supplements. […]
The biological activity of modular peptides was initially assayed by their ability to enhance ALP activity in hMSCs. […] ALP activity was measured at 405 nm, and calculated as the ratio of p-nitrophenol released to total DNA concentration (nmol/min/μg DNA). To determine the amount of total DNA in each well, the cell nuclei were disrupted by addition of the aforementioned lysis buffer followed by centrifugation, and quantified using the CyQUANT Assay Kit (Molecular Probes, Eugene, Oreg.).

hMSCs [5] = assay: Mineralized tissue formation by hMSCs (Alizarin Red-S staining); type: cell-based, human; conditions: soluble peptide (50 μg in 500 μl) with osteogenic supplements, hMSCs on TCP, day 20
Method: hMSCs (Cambrex, Walkersville, Md., passages 5-6) were cultured in mesenchymal stem cell growth medium (MSCGM: Cambrex) consisting of MSC Basal Medium supplemented with 10% fetal bovine serum, L-glutamine, 100 units/ml penicillin, and 0.1 mg/ml streptomycin. 2.5×10^4 hMSCs were seeded onto either tissue culture-treated polystyrene (TCP) or four different types of experimental substrates (1 cm^2) (PLG, HA-coated PLG, eBGu3-treated HA coating, or eBGa3-treated HA coating). hMSCs were allowed to attach to each substrate overnight, then cultured in MSCGM with osteogenic culture supplements (OS) (0.1 μM dexamethasone, 50 μg/ml ascorbic acid, and 10 mM β-glycerophosphate) for 24 days. The effects of soluble peptides included in culture medium were evaluated by adding 50 μg of eBGu3 or eBGa3 peptides to hMSC cultures on TCP in 500 μl of medium with or without osteogenic culture supplements. In each experimental and control sample, whole volume medium changes were performed every 4 days by replacement with fresh medium and collected medium was used for BMP-2 and OCN ELISA assays.
Characterization of mineralized tissue growth was performed via Alizarin Red-S (ARS) staining at day 20. […] For quantification of staining, 400 μl 10% (v/v) acetic acid was added to each well for 30 minutes with shaking. […] Aliquots (100 μl) of the supernatant were read in triplicate at 405 nm in 96-well plate reader.

Substance | amount bound to HA slab ([1]; HA slab, qualitative comparison) | cell number [2] | peptide concentration at which bound amount reached saturation ([1]; HA particle) | time to complete binding to HA particle ([1]; HA particle) | cell number [3] | effect on ALP activity (hMSCs [4]) | effect on mineralized tissue formation (hMSCs [5])
KLTWQELYQLKYKGI [VEGF-mimic, First synthesized by Pedon, et al., inspired by the VEGF helical region, reference compound] | much less than that of VEGF-OCN | increase in cell number to the similar extent when compared to a control |  |  |  |  | 
KLTWQELYQLKYKGI-GGGAAAA-γEPRRγEVAγEL (KLTWQELYQLKYKGIGGGAAAA[Gla]PRR[Gla]VA[Gla]L) [VEGF-OCN] |  | increase in cell number to the similar extent when compared to a control | 15 µM | completed within five minutes | promoted cell proliferation |  | 
KIPKASSVPTELSAISTLYLAAAAγEPRRγEVAγEL (KIPKASSVPTELSAISTLYLAAAA[Gla]PRR[Gla]VA[Gla]L-NH2; N-terminus assumed; SMILES CC[C@H](C)[C@H](NC(=O)[C@H](C)NC(=O)[C@H](CO)NC(=O)[C@H](CC(C)C)NC(=O)[C@H](CCC(=O)O)NC(=O)[C@@H](NC(=O)[C@@H]1CCCN1C(=O)[C@@H](NC(=O)[C@H](CO)NC(=O)[C@H](CO)NC(=O)[C@H](C)NC(=O)[C@H](CCCCN)NC(=O)[C@@H]1CCCN1C(=O)[C@@H](NC(=O)[C@@H](N)CCCCN)[C@@H](C)CC)C(C)C)[C@@H](C)O)C(=O)N[C@@H](CO)C(=O)N[C@H](C(=O)N[C@@H](CC(C)C)C(=O)N[C@@H](Cc1ccc(O)cc1)C(=O)N[C@@H](CC(C)C)C(=O)N[C@@H](C)C(=O)N[C@@H](C)C(=O)N[C@@H](C)C(=O)N[C@@H](C)C(=O)N[C@@H](CC(C(=O)O)C(=O)O)C(=O)N1CCC[C@H]1C(=O)N[C@@H](CCCNC(=N)N)C(=O)N[C@@H](CCCNC(=N)N)C(=O)N[C@@H](CC(C(=O)O)C(=O)O)C(=O)N[C@H](C(=O)N[C@@H](C)C(=O)N[C@@H](CC(C(=O)O)C(=O)O)C(=O)N[C@@H](CC(C)C)C(N)=O)C(C)C)[C@@H](C)O) [eBGa3] |  |  |  |  |  | significantly increased ALP activity | significantly increased
KIPKASSVPTELSAISTLYLAAAAEPRREVAEL [eBGu3] |  |  |  |  |  | no significant differences between the positive effects of eBGu3 and eBGa3 | no significant differences between the positive effects of eBGu3 and eBGa3
